Measurements reported in US7279099B2, “Sludge treatment process” (FKOS, LLC, priority 2004, dated 2007).
Read-outs that look alike come from different tables or passages of the source.

What was measured:
[1] = system: Ascaris eggs; conditions: for Time to PFRP: closed system
[2] = 1500 mg/L
[3] = system: Ascaris; conditions: biosolids, closed system; cited from earlier work
[4] = system: viruses; assay: Disinfection of biosolids with chlorine dioxide: viruses
[5] = system: Ascaris eggs; assay: Disinfection of biosolids with chlorine dioxide alone: Ascaris eggs; conditions: concentrations as high as 1000 ppm
[6] = system: bacteria; assay: Disinfection of biosolids with chlorine dioxide: bacteria
[7] = 24 h, 500 mg/L
[8] = system: C. perfringens spores; conditions: only ozone used; cited from earlier work
[9] = system: poliovirus; conditions: ozone at 20–30 mg/L at pH 3.0 for at least two hours; cited from earlier work
[10] = system: Fecal coliform; conditions: ozone at 20–30 mg/L at pH 3.0 for at least two hours; cited from earlier work

Compound: O=NO [nitrous acid]
- remaining HNO2 dose for PFRP to be reached in two hours ([1]; predicted using Equation 2): at least 25.46 mg/g
- remaining nitrous acid [2]: below 500 mg/L
- concentration capable of Ascaris inactivation [3]: above 400 mg/L

Compound: [O][Cl+][O-] [chlorine dioxide]
- inactivation of viruses [4]: capable of inactivating
- inactivation of Ascaris eggs [5]: not able to inactivate
- inactivation of bacteria [6]: capable of inactivating

Compound: O=NO [sodium nitrite]
- remaining sodium nitrite level [7]: 150 to 250 mg/L
- Time to PFRP ([1]; TSS 3.02 %, initial NO2 dose 697 mg/L): 12 h
- Time to PFRP ([1]; TSS 3.02 %, initial NO2 dose 1046 mg/L): 2 h
- Time to PFRP ([1]; TSS 5.54 %, initial NO2 dose 1754 mg/L): 2 h
- Time to PFRP ([1]; TSS 5.54 %, initial NO2 dose 2573 mg/L): 2 h
- Average [NO2] Remaining (697 mg/L): 340 mg/L
- Average [NO2] Remaining (1046 mg/L): 490 mg/L
- Average [NO2] Remaining (1754 mg/L): 1150 mg/L
- Average [NO2] Remaining (2573 mg/L): 1580 mg/L

Compound: O=[O+][O-] [ozone]
- inactivation of C. perfringens spores [8]: not effective
- inactivation of poliovirus [9]: at least 90%
- Fecal coliform reduction [10]: reduced to a non-detectable level
